Experimental data as given in patent US7737177B2, “Processes for preparing crystalline and amorphous mupirocin calcium” (priority 2001, dated 2010).
Where two headings read alike, the source gives them in different places.

Legend:
[1] = thermal stability on storage (HPLC assay, Karl Fischer water, HPLC impurities); format: physicochemical; parameters: Total Impurity: unit not given here
Protocol: As used herein, the term “assay” refers to a determination of purity/presence of a quantity of a substance as described by the European Pharmacopoeia (“EP”). EUROPEAN PHARMACOPOEIA, Fourth Edition, pp 1602-1604, Council of Europe, Strasbourg, 2001. The assay is done with high pressure liquid chromatography (“HPLC”).
As used herein, the term “total impurity” refers to the sum of all areas under the peaks of impurities as described by the European Pharmacopoeia. It is determined by another HPLC method and is different than the assay.
The present invention provides for amorphous mupirocin calcium with high thermal stability. Thermal stability is defined as the ability to resist chemical degradation during storage, especially in light of the conditions during storage. The higher purity and […] of amorphous mupirocin calcium makes it less susceptible to chemical degradation during storage.
Glass ampoule in Aluminum laminate bag with silica gel was used as the packing system.
Relative humidity was exactly 60%.
The water content was measured by the Karl Fischer method.
High pressure liquid chromatography (HPLC) was performed on a Zorbax® C-8 (5 um; 250×4.6 mm), reverse phase column with ammonium acetate buffer solution in water: tetrahydrofuran mixture as eluent. Detected by U.V. spectroscopy at λ=240 nm.
The assay also used the same HPLC instruments.

[2] = tested on: Gram positive bacteria (e.g. Staphylococcus aureus, Streptococcus pyogenes, Streptococcus pneumoniae, Klebsiella pneumoniae) and some Gram negative bacteria (e.); details: mainly Gram positive and some Gram negative bacteria; cited from earlier work
[3] = cited from earlier work; for Purity after storage: expressed as a percentage of pure free pseudomonic acid
[4] = both for humans and animals; cited from earlier work
[5] = thermal stability reported by Baker et al. (purity after storage); format: physicochemical
Excerpt: The Baker et al. patents disclose preparing amorphous form of mupirocin calcium by crystallization from an aqueous solution consisting of 50% methanol followed by trituration with dry ether.
Baker et al. expresses its assay in relation to psuedomonic acid. The assay of the present invention is expressed differently, as illustrated by Table-1.
In connection with amorphous mupirocin calcium, the assay of the present invention can be converted into the assay expressed as in Baker et al. by multiplying with a factor of 0.9637. This 89.9% assay of Baker et al. corresponds to a 93.29% assay as calculated by the method of the present invention.
In connection with mupirocin calcium dihydrate, the 92.1% assay of Baker et al. corresponds to a 98.88% assay as expressed by the present invention.

[6] = Baker et al., Column 1, Lines 31-33; cited from earlier work
[7] = according to the maker of Bactroban, cited from earlier work
[8] = 1 Kg batch, 0 months at 2–8° C.
[9] = 1 Kg batch, 0.5 months at 2–8° C.
[10] = 1 Kg batch, 0.5 months at 25° C.
[11] = 1 Kg batch, 1.0 months at 2–8° C.
[12] = 1 Kg batch, 2.0 months at 2–8° C.
[13] = 187.2 grams batch, 2° C.-8° C. 60% RH, 0 month
[14] = 187.2 grams batch, 2° C.-8° C. 60% RH, 1 month
[15] = 187.2 grams batch, 2° C.-8° C. 60% RH, 2 months
[16] = 187.2 grams batch, 2° C.-8° C. 60% RH, 3 months
[17] = 187.2 grams batch, 25° C./60% RH, 0 month
[18] = 187.2 grams batch, 25° C./60% RH, 1 month
[19] = 187.2 grams batch, 25° C./60% RH, 2 months
[20] = 187.2 grams batch, 25° C./60% RH, 3 months

## C/C(=C\C(=O)OCCCCCCCCC(=O)[O-])C[C@@H]1OC[C@H](C[C@@H]2O[C@H]2[C@@H](C)[C@H](C)O)[C@@H](O)[C@H]1O.C/C(=C\C(=O)OCCCCCCCCC(=O)[O-])C[C@@H]1OC[C@H](C[C@@H]2O[C@H]2[C@@H](C)[C@H](C)O)[C@@H](O)[C@H]1O.O.O.[Ca+2] [amorphous mupirocin calcium, mupirocin calcium]
[1]; [8]
  Assay: 98.5
  Water: 1.2
[1]; 1 Kg batch, 0 months at 25° C.
  Assay: 98.5
  Water: 1.5
[1]; [9]
  Assay: 95.2
  Total Impurity: 2.71
  Water: 1.3
[1]; [10]
  Assay: 97.4
  Total Impurity: 2.83
  Water: 1.2
[1]; 1 Kg batch, 1 month at 25° C.
  Assay: 98.3
  Total Impurity: 3.18
  Water: 1.9
[1]; [11]
  Assay: 95.5
  Total Impurity: 2.88
  Water: 1.9
[1]; [12]
  Assay: 96.7
  Total Impurity: 2.86
  Water: 1.6
[1]; 1 Kg batch, 2 months at 25° C.
  Assay: 96.5
  Total Impurity: 3.21
  Water: 1.5
[1]; [13]
  Assay (HPLC): 96.0%
  Description: White
  Impurities (HPLC) Imp. C: 1.31%
  Impurities (HPLC) MUP II: 0.31%
  Impurities (HPLC) Total Impurities: 2.22%
  Water: 0.6%
[1]; [14]
  Assay (HPLC): 95.6%
  Description: White
  Water: 0.8%
[1]; [15]
  Assay (HPLC): 95.3%
  Description: White
  Impurities (HPLC) Imp. C: 1.32%
  Impurities (HPLC) MUP II: 0.41%
  Impurities (HPLC) Total Impurities: 2.43%
  Water: 0.7%
[1]; [16]
  Assay (HPLC): 96.1%
  Description: White
  Impurities (HPLC) Imp. C: 1.35%
  Impurities (HPLC) MUP II: 0.42%
  Impurities (HPLC) Total Impurities: 2.62%
  Water: 1.1%
[1]; [17]
  Assay (HPLC): 96.0%
  Description: White powder
  Impurities (HPLC) Imp. C: 1.31%
  Impurities (HPLC) MUP II: 0.31%
  Impurities (HPLC) Total Impurities: 2.22%
  Water: 0.6%
[1]; [18]
  Assay (HPLC): 97.5%
  Description: White
  Water: 0.8%
[1]; [19]
  Assay (HPLC): 94.1%
  Description: White
  Impurities (HPLC) Imp. C: 1.34%
  Impurities (HPLC) MUP II: 0.77%
  Impurities (HPLC) Total Impurities: 3.02%
  Water: 0.8%
[1]; [20]
  Assay (HPLC): 95.9%
  Description: White
  Impurities (HPLC) Imp. C: 1.37%
  Impurities (HPLC) MUP II: 0.89%
  Impurities (HPLC) Total Impurities: 3.25%
  Water: 1.0%
[1]; after 2 months
  total impurity content: about 3%
[1]; after 2 months of storage at about 25° C. and at about 2-8° C.
  Assay: about 96%
[1]; after at least two months of storage at 25° C.
  total level of impurity (not assay): less than 3.5%
[1]; storage at 25° C. and RH 60% for at least two months
  level of impurity MUP II (impurity E in the EP): ≤ 1%

## C/C(=C\C(=O)OCCCCCCCCC(=O)O)C[C@@H]1OC[C@H](C[C@@H]2O[C@H]2[C@@H](C)[C@H](C)O)[C@@H](O)[C@H]1O [Pseudomonic acid A, 9-{4[5S(2S,3S-epoxy-5S-hydroxy-4S-methylhexyl)-3R,4R-dihydroxy-tetrahydropyran-2S-yl]-3-methylbut-2(E)-enoyloxy}nonanoic acid]
[2]
  minimal inhibiting concentration: 0.02 to 0.5 µg/mL
[3]; 2 weeks, 37° C.
  Purity after storage: 90.61%
[3]; 2 weeks, 50° C.
  Purity after storage: 51.18%
[3]; 2 weeks, 80° C.
  Purity after storage: 0%
[3]; 8 days, 80° C.
  Purity after storage: 0%
[3]; 10 days, 50° C.
  Purity after storage: 71.59%
[4]
  toxicity: very low toxicity

## C/C(=C\C(=O)OCCCCCCCCC(=O)[O-])C[C@@H]1OC[C@H](C[C@@H]2O[C@H]2[C@@H](C)[C@H](C)O)[C@@H](O)[C@H]1O.C/C(=C\C(=O)OCCCCCCCCC(=O)[O-])C[C@@H]1OC[C@H](C[C@@H]2O[C@H]2[C@@H](C)[C@H](C)O)[C@@H](O)[C@H]1O.O.O.[Ca+2] [Anhydrous amorphous mupirocin calcium, mupirocin calcium]
[5]; 2 weeks, 37° C., expressed as a percentage of mupirocin calcium anhydrous
  Purity after storage: 91.14%
[5]; 2 weeks, 50° C., expressed as a percentage of mupirocin calcium anhydrous
  Purity after storage: 74.71%
[5]; 2 weeks, 80° C., expressed as a percentage of mupirocin calcium anhydrous
  Purity after storage: 13.05%
[5]; 8 days, 80° C., expressed as a percentage of mupirocin calcium anhydrous
  Purity after storage: 27.05%
[5]; 10 days, 50° C., expressed as a percentage of mupirocin calcium anhydrous
  Purity after storage: 77.70%
[3]; 2 weeks, 37° C.
  Purity after storage: 87.83%
[3]; 2 weeks, 50° C.
  Purity after storage: 72.0%
[3]; 2 weeks, 80° C.
  Purity after storage: 12.58%
[3]; 8 days, 80° C.
  Purity after storage: 26.07%
[3]; 10 days, 50° C.
  Purity after storage: 74.88%
[3]; Baker et al., Column 1, Lines 31-33
  thermal stability: poor thermal stability
[3]; chart in Columns 8 and 9 of the '093 patent
  deterioration at high temperatures: rapid deterioration at high temperatures
[1]; after storage for one month
  level of impurity MUP II (impurity E in the EP): more than 1%
[1]; after two months of storage, FIGS. 9 and 10
  total level of impurities (not assay): more than 3.5%
[6]
  water solubility: sparingly water soluble

## C/C(=C\C(=O)OCCCCCCCCC(=O)[O-])C[C@@H]1OC[C@H](C[C@@H]2O[C@H]2[C@@H](C)[C@H](C)O)[C@@H](O)[C@H]1O.C/C(=C\C(=O)OCCCCCCCCC(=O)[O-])C[C@@H]1OC[C@H](C[C@@H]2O[C@H]2[C@@H](C)[C@H](C)O)[C@@H](O)[C@H]1O.O.O.[Ca+2] [mupirocin calcium]
[7]; administered intravenously at 250 mg
  side effects: without any major side effects
[7]; administered orally at 500 mg
  side effects: without any major side effects

## C/C(=C\C(=O)OCCCCCCCCC(=O)O)C[C@@H]1OC[C@H](C[C@@H]2O[C@H]2[C@@H](C)[C@H](C)O)[C@@H](O)[C@H]1O [Crystalline mupirocin calcium dihydrate, mupirocin calcium dihydrate]
[5]; 2 weeks, 37° C., expressed as a percentage of mupirocin calcium dihydrate
  Purity after storage: 99.08%
[5]; 2 weeks, 50° C., expressed as a percentage of mupirocin calcium dihydrate
  Purity after storage: 97.60%
[5]; 2 weeks, 80° C., expressed as a percentage of mupirocin calcium dihydrate
  Purity after storage: 92.95%
[5]; 8 days, 80° C., expressed as a percentage of mupirocin calcium dihydrate
  Purity after storage: 95.91%
[5]; 10 days, 50° C., expressed as a percentage of mupirocin calcium dihydrate
  Purity after storage: 97.79%
[3]; 2 weeks, 37° C., calcium dihydrate
  Purity after storage: 92.28%
[3]; 2 weeks, 50° C., calcium dihydrate
  Purity after storage: 90.90%
[3]; 2 weeks, 80° C., calcium dihydrate
  Purity after storage: 86.57%
[3]; 8 days, 80° C., calcium dihydrate
  Purity after storage: 89.33%
[3]; 10 days, 50° C., calcium dihydrate
  Purity after storage: 91.08%
